Laboratory results reported in BindingDB's records for patent US12384772 (Vivoryon Therapeutics, 2025).

Legend:
[1] = biological target: T1, Glutaminyl-peptide cyclotransferase (Homo sapiens, UniProt Q16769); assay: Inhibition Assay (pH 6)
Method: (§1) 10 mM compound stock solutions were prepared in DMSO. For IC50 determination compound stocks were serially diluted (1:3) in DMSO.All measurements were performed with an EnSpire Perkin Elmer multimode reader using glutaminyl-7-amino-4-methylcoumarin (H-Gin-AMC) as substrate and recombinant pyroglutamyl aminopeptidase (pGAP) as auxiliary enzyme. Reactions were carried out at ambient temperature in black 96-well half area microplates. Each sample consisted of 1 μl test compound solution or solvent (DMSO) and 49 μl QC appropriately diluted in assay buffer (50 mM Tris/HCl, pH 8.0 or 50 mM MES buffer, pH=6.0). After a 10 min preincubation at ambient temperature the enzyme reaction was started by adding 50 μl of Gln-AMC-substrate/pGAP mixture in assay buffer. Final substrate concentrations were 50 and 200 μM for measurement at pH 8.0 or 6.0, respectively. Release of flourogenic AMC were recorded at excitation/emission wavelengths of 380/460 nm. Initial velocity of the enzyme reaction was calculated by linear regression of the first 10 data points using the Enspire Manager software. Final evaluation and calculation of IC50s were performed using GraphPad Prism software.

[2] = biological target: T1, Glutaminyl-peptide cyclotransferase; assay: Inhibition Assay (pH 8.0)
Method: as §1

T1 sequence (Q16769 whole entry): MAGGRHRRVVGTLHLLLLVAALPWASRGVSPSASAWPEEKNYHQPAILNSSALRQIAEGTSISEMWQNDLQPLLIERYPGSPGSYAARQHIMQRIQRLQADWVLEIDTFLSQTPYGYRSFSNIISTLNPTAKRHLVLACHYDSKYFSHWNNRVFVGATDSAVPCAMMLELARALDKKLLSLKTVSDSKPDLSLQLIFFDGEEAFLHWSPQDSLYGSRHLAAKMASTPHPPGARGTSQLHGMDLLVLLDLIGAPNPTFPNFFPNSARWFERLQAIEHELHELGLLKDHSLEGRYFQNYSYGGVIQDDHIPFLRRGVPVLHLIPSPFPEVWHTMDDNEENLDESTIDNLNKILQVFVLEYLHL

`CS(=O)(=NCc1ccc2[nH]cnc2c1)c1ccc(F)cc1` (configuration not stated) [US12384772, Compound 1285] showed a Ki [1] of 8.05 µM and a Ki [2] of 5.18 µM.
